In ChEMBL document CHEMBL3763075, “Evaluation of phenylcyclopropylamine compounds by enzymatic assay of lysine-specific demethylase 2 in the presence of NPAC peptide” (Bioorg Med Chem Lett, 2016):

Each molecule was assayed against T1, Lysine-specific histone demethylase 2 (Homo sapiens, UniProt Q8NB78).
T1 sequence (Q8NB78 whole entry): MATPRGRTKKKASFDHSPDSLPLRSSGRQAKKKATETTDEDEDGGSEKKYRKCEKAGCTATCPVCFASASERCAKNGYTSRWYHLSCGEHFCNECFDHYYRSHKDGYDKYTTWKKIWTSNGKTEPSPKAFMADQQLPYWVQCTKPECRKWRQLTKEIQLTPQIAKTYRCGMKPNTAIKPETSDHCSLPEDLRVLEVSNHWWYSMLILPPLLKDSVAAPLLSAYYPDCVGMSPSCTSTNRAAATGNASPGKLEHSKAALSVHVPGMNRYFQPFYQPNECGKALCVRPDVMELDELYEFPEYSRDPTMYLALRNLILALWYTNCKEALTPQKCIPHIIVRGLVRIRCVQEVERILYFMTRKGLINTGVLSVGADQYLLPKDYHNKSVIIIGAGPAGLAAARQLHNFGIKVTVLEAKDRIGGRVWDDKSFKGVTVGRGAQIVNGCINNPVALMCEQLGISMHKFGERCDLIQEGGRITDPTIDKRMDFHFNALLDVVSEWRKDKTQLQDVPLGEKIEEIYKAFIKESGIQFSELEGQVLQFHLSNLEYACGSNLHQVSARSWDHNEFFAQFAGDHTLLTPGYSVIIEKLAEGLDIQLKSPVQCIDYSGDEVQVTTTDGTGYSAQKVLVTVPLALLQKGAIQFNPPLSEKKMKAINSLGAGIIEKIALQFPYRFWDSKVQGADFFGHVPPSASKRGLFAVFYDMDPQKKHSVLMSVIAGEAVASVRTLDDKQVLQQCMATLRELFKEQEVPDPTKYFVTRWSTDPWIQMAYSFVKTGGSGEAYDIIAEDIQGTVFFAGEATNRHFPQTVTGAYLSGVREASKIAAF
Description: Inhibition of recombinant human LSD2 using H3K4 peptide as substrate assessed as decrease in H3K4 demethylation after 1 hr by mass spectroscopic analysis
In the case of O=C(N[C@@H](CCCCNC1CC1c1ccccc1)C(=O)NCc1cccc(C(F)(F)F)c1)c1ccc(-c2ccccc2)cc1 (stereo partly drawn), the IC50 is reported as > 540 µM.
Work on O=C(N[C@@H](CCCCNC1CC1c1ccccc1)C(=O)NCc1ccc(Cl)cc1)c1ccc(-c2ccccc2)cc1 (stereo partly drawn) yielded an IC50 of 250 µM.
O=C(N[C@@H](CCCCNC1CC1c1ccccc1)C(=O)NCc1ccccc1)c1ccc(-c2ccccc2)cc1 (stereo partly drawn) gave an IC50 of 230 µM.
